Results: ChEMBL document CHEMBL1909492, “Discovery of 1-arylcarbonyl-6,7-dimethoxyisoquinoline derivatives as glutamine fructose-6-phosphate amidotransferase (GFAT) inhibitors” (Bioorg Med Chem Lett, 2011)
pIC50, pKi: −log10 of the molar value. Converted amounts (≈) assume the structure as drawn. The source made the active and inactive calls. The calls are words filed in the database; no cut-off is given here.

How the values were obtained:
[1] = Inhibition of GFAT-beta expressed in COS cells using […] as substrate
[2] = Photo-degradation of compound in DMSO at 1 mM after 2 hrs by HPLC/UV spectrophotometric analysis; type: physicochemical; conditions: read-out: Activity
[3] = molecular target: T1, Glutamine--fructose-6-phosphate aminotransferase [isomerizing] 1 (Homo sapiens, UniProt Q06210); assay: Irreversible inhibition of GFAT
[4] = Photo-degradation of compound in solid state over years by HPLC analysis; type: physicochemical
[5] = Apparent permeability across human Caco2 cell membrane; type: ADME, cell-based; conditions: Caco-2
[6] = Photo-degradation of compound in DMSO at 1 mM after 2 hrs by LC/MS analysis; type: physicochemical; conditions: read-out: Activity
[7] = molecular target: T1, Glutamine--fructose-6-phosphate aminotransferase [isomerizing] 1; assay: Reversible inhibition of GFAT
[8] = Solubility of the compound at pH 6.4; type: physicochemical; conditions: buffer
[9] = molecular target: T1, Glutamine--fructose-6-phosphate aminotransferase [isomerizing] 1; assay: Noncompetitive inhibition of GFAT in presence of fructose-6-phosphate
[10] = Volume of distribution in rat at 10 mg/kg, iv; type: ADME, organism-based; set-up: dose 10 mg/kg, route intravenous; conditions: in vivo
Mus musculus [11] = assay: Antidiabetic activity in fasted ob/ob mouse assessed as deduction of glucose excursion at 50 mg/kg, po at 4 hr and 1 hr prior to oral glucose challenge by oral glucose tolerance test; type: functional, organism-based; set-up: dose 50 mg/kg
[12] = Clearance in rat at 10 mg/kg, iv; type: ADME, organism-based; set-up: dose 10 mg/kg, route intravenous; conditions: in vivo
[13] = Tmax in rat at 50 mg/kg, po; type: ADME, organism-based; set-up: dose 50 mg/kg, route oral; conditions: in vivo
[14] = Oral bioavailability in rat at 50 mg/kg; type: ADME, organism-based; conditions: in vivo
[15] = molecular target: T1, Glutamine--fructose-6-phosphate aminotransferase [isomerizing] 1; assay: Competitive inhibition of GFAT in presence of glutamine
Mus musculus [16] = assay: Antidiabetic activity in […] ob/ob mouse assessed decrease of glucose AUC at 50 mg/kg, po at 4 hr and 1 hr prior to oral glucose challenge by oral glucose tolerance test relative to control; type: functional; set-up: scale not given: the % may be the effect or the level left
[17] = Cmax in rat at 50 mg/kg, po; type: ADME, organism-based; set-up: dose 50 mg/kg, route oral; conditions: in vivo
[18] = AUC in rat at 50 mg/kg, po; type: ADME, organism-based; set-up: dose 50 mg/kg, route oral; conditions: plasma
[19] = Lipophilicity, log D of the compound at pH 7.2; type: physicochemical; conditions: buffer
[20] = Photo-degradation of compound in DMSO exposed to daylight at 1 mM after 24 hrs by HPLC analysis; type: physicochemical; conditions: 1000 µM
[21] = AUC in rat at 10 mg/kg, iv; type: ADME, organism-based; set-up: dose 10 mg/kg, route intravenous; conditions: plasma
[22] = Half life in rat at 10 mg/kg, iv; type: ADME, organism-based; set-up: dose 10 mg/kg, route intravenous; conditions: in vivo
[23] = molecular target: T1, Glutamine--fructose-6-phosphate aminotransferase [isomerizing] 1; assay: Inhibition of GFAT using […] as substrate

T1 sequence (Q06210 whole entry): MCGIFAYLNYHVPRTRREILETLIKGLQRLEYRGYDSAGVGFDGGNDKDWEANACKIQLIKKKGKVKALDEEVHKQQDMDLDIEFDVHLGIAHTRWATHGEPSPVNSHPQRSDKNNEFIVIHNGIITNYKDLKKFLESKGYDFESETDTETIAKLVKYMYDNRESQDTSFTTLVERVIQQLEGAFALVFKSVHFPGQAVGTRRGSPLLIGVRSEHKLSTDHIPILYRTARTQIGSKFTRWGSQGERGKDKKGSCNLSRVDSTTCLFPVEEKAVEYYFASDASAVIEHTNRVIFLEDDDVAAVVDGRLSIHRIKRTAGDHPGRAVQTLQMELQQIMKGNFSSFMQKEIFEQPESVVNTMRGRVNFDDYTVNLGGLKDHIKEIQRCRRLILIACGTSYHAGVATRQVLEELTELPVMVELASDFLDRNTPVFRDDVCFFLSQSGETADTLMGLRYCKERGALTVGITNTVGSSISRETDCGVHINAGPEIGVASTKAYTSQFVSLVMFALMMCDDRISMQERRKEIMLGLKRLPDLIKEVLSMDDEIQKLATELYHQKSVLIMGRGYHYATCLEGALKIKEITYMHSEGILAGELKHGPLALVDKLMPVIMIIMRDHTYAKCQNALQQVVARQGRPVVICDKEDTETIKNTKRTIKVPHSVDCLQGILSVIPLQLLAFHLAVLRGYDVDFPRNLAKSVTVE

| Structure (SMILES) | pIC50 [1] | other results |
| --- | --- | --- |
| COc1cc2c(CNS(C)(=O)=O)cnc(C(=O)c3cccc(OC(C)C)c3)c2cc1OC | 6.05 | – |
| COC(=O)/C=C/C(=O)NC[C@H](N)C(=O)O | – | pIC50 [3]: 6.40 |
| N[C@@H](CNC(=O)CBr)C(=O)O | – | pIC50 [3]: 6.82 |
| COc1cc2c(C(=O)O)cnc(C(=O)c3c(F)ccc(OC(C)C)c3F)c2cc1OC | 6.05 | – |
| COc1cc2c(CN3C(=O)CSC3=O)cnc(C(=O)c3cccc(OC(C)C)c3)c2cc1OC | 6.09 | – |
| COc1ccc(Cc2ncc(C(=O)O)c3cc(OC)c(OC)cc23)cc1OC | < 4.00 | – |
| COc1cc2c(C(=O)O)cnc(C(=O)c3ccccc3)c2cc1OC | 5.00 | – |
| COc1cccc(C(=O)c2ncc(C(=O)O)c3cc(OC)c(OC)cc23)c1 | 5.92 | – |
| COc1ccc(C(=O)c2ncc(C(=O)O)c3cc(OC)c(OC)cc23)cc1 | < 4.00 | – |
| COc1ccc(F)c(C(=O)c2ncc(CNS(=O)(=O)C(F)(F)F)c3cc(OC)c(OC)cc23)c1 | 6.17 | – |
| CCOc1cccc(C(=O)c2ncc(-c3nn[nH]n3)c3cc(OC)c(OC)cc23)c1 | 6.10 | – |
| COc1cc2ccnc3c2c(c1OC)NC=C3 [AAPTAMINE] | – | pIC50 [23]: 3.92 |
| COc1cc2c(CNS(=O)(=O)C(F)(F)F)cnc(C(=O)c3c(F)cccc3F)c2cc1OC | 5.36 | – |

Continued, in another order:

| pIC50 [1] | Structure (SMILES) | other results |
| --- | --- | --- |
| 4.70 | COc1ccc(C(=O)c2ncc(C(=O)O)c3cc(OC)c(OC)cc23)cc1OC | – |
| < 4.00 | COc1cccc(NC(=O)c2ncc(C(=O)O)c3cc(OC)c(OC)cc23)c1 | – |
| 6.14 | COc1cc2c(C(=O)O)cnc(C(=O)c3cccc(OC(C)C)c3)c2cc1OC | degraded at 2 h, 1000 µM [2]: 75.9% |
| 6.03 | COc1cc2c(C(=O)O)cnc(C(=O)c3c(F)ccc(OC)c3F)c2cc1OC | – |
| 6.24 | COc1cc2c(Cn3oc(=O)[nH]c3=O)cnc(C(=O)c3cccc(OC(C)C)c3)c2cc1OC | – |
| 6.06 | COc1ccc(F)c(C(=O)c2ncc(C(=O)O)c3cc(OC)c(OC)cc23)c1 | degraded at 2 h, 1000 µM [2]: 25.4% |
| < 4.00 | COc1cccc(C(=O)c2ncc(C(=O)O)c3ccc(OC)cc23)c1 | – |
| < 4.00 | COc1cccc(C(=O)c2ncc(C(=O)O)c3cc(O)c(OC)cc23)c1 | – |
| 5.60 | COc1cc2c(C(=O)O)cnc(C(=O)c3cc(OC(C)C)ccc3F)c2cc1OC | degraded at 2 h, 1000 µM [2]: 22% |
| < 4.00 | COc1cccc(C(=O)c2ncc(C(=O)O)c3cc(OC)ccc23)c1 | – |
| < 4.00 | COc1cccc(C(=O)c2ncc(C(=O)O)c3ccccc23)c1 | – |
| 6.00 | COc1cc2c(CNS(=O)(=O)C(F)(F)F)cnc(C(=O)c3cccc(OC(C)C)c3)c2cc1OC | Stability [4]: Stable; Papp [5]: 35.7 ×10⁻⁶ cm/s; degraded at 2 h, 1000 µM [6]: 30%; inhibition [7]: Active; solubility [8]: 3 µg/mL (≈ 5.85 µM); pKi [9]: 6.52; Vd [10]: 0.4 L/kg; Activity (Mus musculus [11]): Active; clearance [12]: 3.2 mL/min/kg; Tmax [13]: 1 h; bioavailability [14]: 91%; pKi [15]: 6.52; Activity (Mus musculus [16]): >35%; Cmax [17]: 112 µM; AUC [18]: 239 µg·h/mL; logD [19]: 2.89; Stability [20]: Stable; AUC [21]: 52300 ng·h/mL; half-life [22]: 101 min |
| < 4.00 | COc1cccc(C(O)c2ncc(C(=O)O)c3cc(OC)c(OC)cc23)c1 (centres undefined) | – |
| 6.08 | CCOc1cccc(C(=O)c2ncc(C(=O)O)c3cc(OC)c(OC)cc23)c1 | – |
| 5.72 | COc1cc2c(CC(=O)O)cnc(C(=O)c3cc(OC(C)C)ccc3F)c2cc1OC | – |
| 5.00 | COc1cc2c(C(=O)O)cnc(C(=O)c3c(F)cccc3F)c2cc1OC | inhibition [7]: Active; degraded at 2 h, 1000 µM [2]: 0% |
| 5.96 | COc1cc2c(CNC(C)=O)cnc(C(=O)c3cccc(OC(C)C)c3)c2cc1OC | – |
